Common to all, as to test: Inhibition of in vitro proliferation of tumor cells by PBD compounds (CTG)
What all share (assay type): cell-based

In test [1] the test system is MKN45 (human gastric cancer cells). The settings on record: MKN-45, 144 h, 6 days of culture. The procedure: (§1) The objective of this assay is to measure the activity of the compounds of the present disclosure in inhibiting the proliferation of different tumor cell lines: SK-BR-3 tumor cells (human breast cancer cells, ATCC, Cat. No. HTB-30), NCI-H23 (human non-small cell lung cancer cells, Nanjing Cobioer, Cat. No. CBP60132), and MKN45 (human gastric cancer cells, Nanjing Cobioer, Cat. No. CBP60488). The cells were treated in vitro with different concentrations of the compounds. After 6 days of culture, the proliferation of the cells was measured using CTG (CellTiter-Glo® Luminescent Cell Viability Assay, Promega, Cat. No. G7573) reagent, and the in vitro activity of the compounds was evaluated based on their IC50 values.
(§2) • 1. Cell culture: SK-BR-3, NCI-H23, and MKN45 cells were separately cultured in McCoy's 5A medium (ThermoFisher, Cat. No. 16600108) and RPMI 1640 medium (ThermoFisher, Cat. No. 11875119) containing 10% FBS (Gibco, 10099-141). • 2. Cell plating: After being digested with trypsin (0.25% Trypsin-EDTA (1×), Life Technologies, Cat. No. 25200-072), the SK-BR-3, NCI-H23, and MKN45 were resuspended in their respective media and counted. The density was adjusted to 1.48×10^4 cells/mL, and the cells were plated onto 96-well plates (corning, Cat. No. 3903) at 135 μL/well, i.e., 2000 cells/well, and cultured at 37° C. for 24 h. • 3. Drug formulation: PBD drugs were formulated in round-bottom 96-well plates. Plate 1: In the first column, the concentration was 0.05 mM; in the second column through the fourth column, a 3-fold serial dilution was performed in DMSO; in the fifth column through the sixth column, a 5-fold serial dilution was performed in DMSO; in the seventh column through the ninth column, a 10-fold serial dilution was performed in DMSO; and the tenth column contained DMSO. Plate 2: Corresponding media were added to the first column through the tenth column at 196 μL/well; 4 μL of solution was transferred from each well of the first column through the tenth column of plate 1 to plate 2 and well mixed with the medium; 15 μL of the mixture was added to the cells plated the day before, and the cells were cultured at 37° C. for another 6 days. • 4. CTG assay: The cell culture plates were taken out and equilibrated to room temperature. CTG was added at 75 μL/well, and the plates were incubated at room temperature in the dark for 10 min. Then luminescence values were measured on a microplate reader (BMG labtech, PHERAstar FS).

Test [2] has as its system NCI-H23 (human non-small cell lung cancer cells). Particulars: 144 h, 6 days of culture. The procedure:
as §1, §2

The test system of test [3] is SK-BR-3 tumor cells (human breast cancer cells). Particulars: 144 h, 6 days of culture. The method, then:
as §1, §2

pIC50: −log10 of the molar value.

One may read the pIC50 as the IC50 on a negative log10 scale, so that one unit is a factor of ten. Read a high pIC50 as a low IC50. Consider `COc1cc2c(cc1OCCCCCOc1cc3c(cc1OC1CC1)C(=O)N1CC4(CC4)C[C@H]1C=N3)NC[C@@H]1CC(c3ccc(C4CCOCC4)cc3)=CN1C2=O` [2-39, (S)-7-Cyclopropoxy-8-((5-(((S)-7-methoxy-5-oxo-2-(4-(tetrahydro-2H-pyran-4-yl)phenyl)-5,10,11,11a-tetrahydro-1H-benzo[e]pyrrolo[1,2-a][1,4]diazepin-8-yl)oxy)pentyl)oxy)-1,11a-dihydro-3H,5H-spiro[benzo[e]pyrrolo[1,2-a][1,4]diazepine-2,1′-cyclopropan]-5-one], for which the values for the pIC50 in test [1], in test [2] and in test [3] were 9.08, 9.41 and 9.24, respectively.
Turning to `COc1ccc(C2=CN3C(=O)c4cc(OC)c(OCCCCCOc5cc6c(cc5OC)C(=O)N5CC7(CC7)C[C@H]5CN6)cc4NC[C@@H]3C2)cc1` [2-27, (S)-7-Methoxy-8-((5-(((S)-7-methoxy-2-(4-methoxyphenyl)-5-oxo-5,10,11,11a-tetrahydro-1H-benzo[e]pyrrolo[1,2-a][1,4]diazepin-8-yl)oxy)pentyl)oxy)-1,10,11,11a-tetrahydro-3H,5H-spiro[benzo[e]pyrrolo[1,2-a][1,4]diazepine-2,1′-cyclopropan]-5-one], the pIC50 is 8.12 in test [1], 8.14 in test [2] and 8.30 in test [3].
As to `COc1cc2c(cc1OCCCCCOc1cc3c(cc1OC)C(=O)N1C=C(c4ccc(N5CCN(C(=O)CO)CC5)cc4)C[C@H]1CN3)N=C[C@@H]1CC3(CC3)CN1C2=O` [2-32, (S)-8-((5-(((S)-2-(4-(4-(2-Hydroxyacetyl)piperazin-1-yl)phenyl)-7-methoxy-5-oxo-5,10,11,11a-tetrahydro-1H-benzo[e]pyrrolo[1,2-a][1,4]diazepin-8-yl)oxy)pentyl)oxy)-7-methoxy-1,11a-dihydro-3H,5H-spiro[benzo[e]pyrrolo[1,2-a][1,4]diazepine-2,1′-cyclopropan]-5-one], the pIC50 in test [1] is 9.89; in test [2], 10.05; in test [3], 9.11.
On the same counts, the results for `COc1cc2c(cc1OCCCCCOc1cc3c(cc1OC)C(=O)N1C=C(c4ccc(N5CCN(C)CC5)cc4)C[C@H]1CN3)N=C[C@@H]1CC3(CC3)CN1C2=O` [2-1, (S)-7-Methoxy-8-((5-(((S)-7-methoxy-2-(4-(4-methylpiperazin-1-yl)phenyl)-5-oxo-5,10,11,11a-tetrahydro-1H-benzo[e]pyrrolo[1,2-a][1,4]diazepin-8-yl)oxy)pentyl)oxy)-1,11a-dihydro-3H,5H-spiro[benzo[e]pyrrolo[1,2-a][1,4]diazepine-2,1′-cyclopropan]-5-one] are 10.70, 10.70 and 10.15.
`COc1ccc(C2=CN3C(=O)c4cc(OC)c(OCCCCCOc5cc6c(cc5OC)C(=O)N5CC7(CC7)C[C@H]5C=N6)cc4NC(=O)[C@@H]3C2)cc1` [2-22, (S)-7-Methoxy-8-((5-(((S)-7-methoxy-5-oxo-5,11a-dihydro-1H,3H-spiro[benzo[e]pyrrolo[1,2-a][1,4]diazepine-2,1′-cyclopropan]-8-yl)oxy)pentyl)oxy)-2-(4-methoxyphenyl)-1,11a-dihydro-5H-benzo[e]pyrrolo[1,2-a][1,4]diazepine-5,11(10H)-dione]: the pIC50 in test [1] is 9.77; in test [2], 10.10; in test [3] it was 9.59.
On to `COc1cc2c(cc1OCCCCCOc1cc3c(cc1OC)C(=O)N1C=C(c4ccc(SCC5CC5)cc4)C[C@H]1CN3)N=C[C@@H]1CC3(CC3)CN1C2=O` [2-34, (S)-8-((5-(((S)-2-(4-((Cyclopropylmethyl)thio)phenyl)-7-methoxy-5-oxo-5,10,11,11a-tetrahydro-1H-benzo[e]pyrrolo[1,2-a][1,4]diazepin-8-yl)oxy)pentyl)oxy)-7-methoxy-1,11a-dihydro-3H,5H-spiro[benzo[e]pyrrolo[1,2-a][1,4]diazepine-2,1′-cyclopropan]-5-one], for which the results for the pIC50 in test [1], in test [2] and in test [3] were 8.86, 9.21 and 8.85, respectively.
For `COc1cc2c(cc1OCCCCCOc1cc3c(cc1OC)C(=O)N1C=C(c4ccc(N5CCN(C[C@@H](O)CO)CC5)cc4)C[C@H]1CN3)N=C[C@@H]1CC3(CC3)CN1C2=O` [2-31, (S)-8-((5-(((S)-2-(4-(4-((R)-2,3-Dihydroxypropyl)piperazin-1-yl)phenyl)-7-methoxy-5-oxo-5,10,11,11a-tetrahydro-1H-benzo[e]pyrrolo[1,2-a][1,4]diazepin-8-yl)oxy)pentyl)oxy)-7-methoxy-1,11a-dihydro-3H,5H-spiro[benzo[e]pyrrolo[1,2-a][1,4]diazepine-2,1′-cyclopropan]-5-one] the same measures were 10.00, 10.10 and 9.43.
`COc1cc2c(cc1OCCCCCOc1cc3c(cc1OC)C(=O)N1C=C(c4ccc(N5CCOCC5)cc4)C[C@H]1CN3)N=C[C@@H]1CC3(CC3)CN1C2=O` [2-2, (S)-7-Methoxy-8-((5-(((S)-7-methoxy-2-(4-morpholinylphenyl)-5-oxo-5,10,11,11a-tetrahydro-1H-benzo[e]pyrrolo[1,2-a][1,4]diazepin-8-yl)oxy)pentyl)oxy)-1,11a-dihydro-3H,5H-spiro[benzo[e]pyrrolo[1,2-a][1,4]diazepine-2,1′-cyclopropan]-5-one]: the pIC50 was 10.05 in test [1], 10.70 in test [2] and 10.30 in test [3].
Regarding `COc1ccc(C2=CN3C(=O)c4cc(OC)c(OCCCCCOc5cc6c(cc5OC5CC5)C(=O)N5CC7(CC7)C[C@H]5C=N6)cc4NC[C@@H]3C2)cc1` [2-16, (S)-7-Cyclopropoxy-8-((5-(((S)-7-methoxy-2-(4-methoxyphenyl)-5-oxo-5,10,11,11a-tetrahydro-1H-benzo[e]pyrrolo[1,2-a][1,4]diazepin-8-yl)oxy)pentyl)oxy)-1,11a-dihydro-3H,5H-spiro[benzo[e]pyrrolo[1,2-a][1,4]diazepine-2,1′-cyclopropan]-5-one], the pIC50 in test [1] was 9.59; in test [2] it was 9.74; in test [3], 9.44.
For the compound `COc1cc2c(cc1OCCCCCOc1cc3c(cc1OC)C(=O)N1C=C(c4ccc(-n5cccn5)cc4)C[C@H]1CN3)N=C[C@@H]1CC3(CC3)CN1C2=O` [2-4, (S)-8-((5-(((S)-2-(4-(1H-Pyrazol-1-yl)phenyl)-7-methoxy-5-oxo-5,10,11,11a-tetrahydro-1H-benzo[e]pyrrolo[1,2-a][1,4]diazepin-8-yl)oxy)pentyl)oxy)-7-methoxy-1,11a-dihydro-3H,5H-spiro[benzo[e]pyrrolo[1,2-a][1,4]diazepine-2,1′-cyclopropan]-5-one], the pIC50 is 8.84 in test [1], 9.47 in test [2] and 9.15 in test [3].
For `COc1cc2c(cc1OCCCCCOc1cc3c(cc1OC)C(=O)N1C=C(c4ccc(SC5CC5)cc4)C[C@H]1CN3)N=C[C@@H]1CC3(CC3)CN1C2=O` [2-3], the pIC50 in test [1] is 9.31; in test [2], 10.30; in test [3], 9.70.

Source of the values: patent publication US20250000989A1, “PYRROLO BENZODIAZEPINE DERIVATIVE, AND CONJUGATE, PREPARATION METHOD AND USE THEREOF” (priority 2021, published 2025).
